Measured values as given in patent US5506102A (priority 1993, dated 1996).

Key:
[1] = tested on: PR-B (co-expressed with PR-A); experiment: PR-A effect on PR-B mediated PRE2 tk-LUC transcription (co-transfection); assay type: cell-based, human
Experimental: FIGS. 4A-4B are a series of graphs showing CV-1 ([…]) or HepG2 (FIG. 4B) cells that were transiently transfected with either […] of phPR-B or phPR-A alone, or phPR-B in the presence of increasing concentrations of phPR-A, together with 5 µg/ml of the PRE2 tk-LUC reporter and 5 µg/ml of pCH110 as an internal control. HeLa cells (FIG. 4C) were transfected with either phPR-B or phPR-A together with 5 µg/ml of the pTAT2950 reporter and 5 µg/ml of pCH110 as an internal control. […] The relative luciferase activity is calculated by dividing the normalized luciferase value at a given point by that obtained in the absence of transfected receptor or ligand. The data shown represent the mean +/- average deviation from the mean of triplicate estimations;
Both reporter plasmids were digested with XhoI and HindIII restriction enzymes and a 6.7 Kb fragment from MMTV-LUC and a 0.12 Kb fragment from PRE2 tk-CAT were isolated and ligated, resulting in a plasmid called PRE2 tk-LUC.
Cells were seeded in 12-well, 96-well or 10 cm tissue culture plates. […] 20 μg of DNA/ml of transfection buffer were used in each transfection reaction. […]

human estrogen receptor = experiment: ER transcriptional activity on MMTV-ERE-LUC, CV-1 cells, ER co-expressed with PR-B; assay type: cell-based; conditions: 10^-7 M 17β-estradiol, FIG. 11D
Experimental: All values were normalized for transfection efficiency by simultaneous estimation of luciferase and β-galactocidase activities. The relative luciferase activity is calculated by dividing the normalized luciferase value at a given point by that obtained in the absence of transfected receptor or ligand. Data shown represent the mean +/- the average deviation from the mean of triplicate estimations.
Vegeto et al., supra. Cells were plated into 96-well tissue culture plates. The vector DNA was introduced into the CV-1 cells using calcium phosphate coprecipitation as described herein. More specifically, 20 μg of DNA/ml of transfection buffer were used in each transfection. Each transfection mix included 0.5 μg of pRST7hER, 9.5 μg of MMTV-ERE-LUC, 5 μg of pCH110, (which contains the gene for β-galactosidase) as an internal control and 5 μg of PGEM4 DNA as a carrier. […] The concentration of pXVhPR-A vector chosen was determined by performing the experiment at several different concentrations of vector, and then using that concentration that was optimal for transcriptional readout. […] The Normalized LUC activity was calculated by dividing the raw luciferase (×10^4) units for each point by the β-galactosidase activity [(OD415 nm ×10^5)/time min.] at that point.

CC(=O)[C@H]1CC[C@H]2[C@@H]3CCC4=CC(=O)CC[C@]4(C)[C@H]3CC[C@]12C [progesterone]
PR-A effect on PR-B activity on PRE2 tk-LUC ([1]; CV-1, 10^-7 M progesterone, FIG. 4A): repression of PR-B activity
PR-A effect on PR-B transcriptional activity on PRE2 tk-LUC ([1]; HepG2, 10^-7 M progesterone, FIG. 4B): no effect on PR-B transcriptional activity
inhibition of ER function with hPR-B (human estrogen receptor): hPR-B will not inhibit
